From PMC9270327 (Communications Biology, 2022)
Several values for one entry are separate records, joined by “and”; a condition that tells them apart may be missing. Identical values can stand only once. Like-named read-outs stand apart in the source and are kept apart here.

Experiments:
TMPRSS2 = TMPRSS2 (Homo sapiens, UniProt O15393); assay: Cell culture medium stability: residual TMPRSS2 inhibition after incubation in medium
Protocol: The activity of the compounds against the recombinant human enzymes was determined in enzyme inhibition assays. […] The measurements were performed on a Tecan infinite® M1000 and the fluorescence intensity was measured by exciting the AMC fluorophore at 380 nm wavelength and recording emission at 460 nm wavelength. […] Fluorescence intensities and absorption were measured every 2 min for 2 h or as endpoint after 2 h. […] To determine the IC50 values, the concentration-response data were plotted with the program GraphPad prism version 8.4.2 (San Diego, California) and a nonlinear regression fit with the equation [Inhibitor] vs. normalized response was applied. The inhibitory constant Ki was calculated from the IC50 values using the Cheng–Prusoff equation (Ki = IC50/[S]/KM) for competitive reversible inhibitors[66].
The stability of the inhibitors was measured according to a modified procedure from ref. [67]. […] At indicated timepoints, 100 µL samples were taken and mixed with 200 µL of ethanol to precipitate proteins. […] The supernatant was aspirated and analyzed using analytical HPLC. The residual inhibitory constants Ki after incubation was assessed by mixing serial dilutions of the inhibitor with recombinant TMPRSS2 as described above.
were mixed with recombinant TMPRSS2, followed by the addition of the fluorogenic reference
Shown are the means ± SD of n=1 experiment performed in triplicates.

[1] = tested on: SARS-CoV-2 Wuhan-Hu-1, Caco-2 cells; format: cell-based; settings: for SARS-CoV-2 infection, Mean (0 nM = 100): Fig. 6a, Wuhan-Hu-1
[2] = tested on: lentiviral pseudoparticles carrying SARS-CoV-2 Omicron BA.1 (B.1.1.529) spike, Caco-2 cells; format: cell-based
[3] = tested on: SARS-CoV-2 Beta (B.1.351), Caco-2 cells; format: cell-based; settings: for SARS-CoV-2 infection, Mean (0 nM = 100): Fig. 6d, VOC Beta
[4] = tested on: lentiviral pseudoparticles carrying SARS-CoV-2 Beta (B.1.351) spike, Caco-2 cells; format: cell-based; settings: Caco-2 cells, luciferase 2 days post transduction; read-out: IC50 pseudotyped lentivirus Beta

Sequence of TMPRSS2 (O15393 whole entry): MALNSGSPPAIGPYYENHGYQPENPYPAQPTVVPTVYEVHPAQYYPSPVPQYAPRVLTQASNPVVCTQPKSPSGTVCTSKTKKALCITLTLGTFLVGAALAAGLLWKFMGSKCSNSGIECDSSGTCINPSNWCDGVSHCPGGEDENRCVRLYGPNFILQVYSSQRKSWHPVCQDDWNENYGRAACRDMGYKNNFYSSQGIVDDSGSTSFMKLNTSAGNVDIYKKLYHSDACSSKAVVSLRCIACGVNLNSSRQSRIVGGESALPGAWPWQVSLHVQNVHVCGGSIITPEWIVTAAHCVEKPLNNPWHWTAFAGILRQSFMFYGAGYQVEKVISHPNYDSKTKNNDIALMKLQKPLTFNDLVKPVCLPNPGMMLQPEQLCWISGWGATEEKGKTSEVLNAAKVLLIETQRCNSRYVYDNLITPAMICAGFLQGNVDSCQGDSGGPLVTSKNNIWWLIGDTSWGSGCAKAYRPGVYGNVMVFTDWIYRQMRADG

ace-Arg-Pro-Arg-kbt [Compound 2]
Residual TMPRSS2 activity, Mean (0 nM = 100) (TMPRSS2; inhibitor 0.0167 nM, 0 min in cell culture medium): 98.9717
Residual TMPRSS2 activity, Mean (0 nM = 100) (TMPRSS2; inhibitor 0.0167 nM, 30 min in cell culture medium): 101.323
Residual TMPRSS2 activity, Mean (0 nM = 100) (TMPRSS2; inhibitor 0.0167 nM, 60 min in cell culture medium): 96.8723
Residual TMPRSS2 activity, Mean (0 nM = 100) (TMPRSS2; inhibitor 0.0167 nM, 120 min in cell culture medium): 98.5343
Residual TMPRSS2 activity, Mean (0 nM = 100) (TMPRSS2; inhibitor 0.0167 nM, 24 h in cell culture medium): 98.1961
Residual TMPRSS2 activity, Mean (0 nM = 100) (TMPRSS2; inhibitor 0.0167 nM, 10 d in cell culture medium): 98.4437
Residual TMPRSS2 activity, Mean (0 nM = 100) (TMPRSS2; inhibitor 0.0167 nM, positive ctrl): 97.6368
Residual TMPRSS2 activity, Mean (0 nM = 100) (TMPRSS2; inhibitor 0.167 nM, 0 min in cell culture medium): 100.63
Residual TMPRSS2 activity, Mean (0 nM = 100) (TMPRSS2; inhibitor 0.167 nM, 30 min in cell culture medium): 100.761
Residual TMPRSS2 activity, Mean (0 nM = 100) (TMPRSS2; inhibitor 0.167 nM, 60 min in cell culture medium): 103.84
Residual TMPRSS2 activity, Mean (0 nM = 100) (TMPRSS2; inhibitor 0.167 nM, 120 min in cell culture medium): 96.4654
Residual TMPRSS2 activity, Mean (0 nM = 100) (TMPRSS2; inhibitor 0.167 nM, 24 h in cell culture medium): 97.7945
Residual TMPRSS2 activity, Mean (0 nM = 100) (TMPRSS2; inhibitor 0.167 nM, 10 d in cell culture medium): 101.036
Residual TMPRSS2 activity, Mean (0 nM = 100) (TMPRSS2; inhibitor 0.167 nM, positive ctrl): 98.5654
Residual TMPRSS2 activity, Mean (0 nM = 100) (TMPRSS2; inhibitor 1.665 nM, 0 min in cell culture medium): 97.2536
Residual TMPRSS2 activity, Mean (0 nM = 100) (TMPRSS2; inhibitor 1.665 nM, 30 min in cell culture medium): 96.1305
Residual TMPRSS2 activity, Mean (0 nM = 100) (TMPRSS2; inhibitor 1.665 nM, 60 min in cell culture medium): 95.956
Residual TMPRSS2 activity, Mean (0 nM = 100) (TMPRSS2; inhibitor 1.665 nM, 120 min in cell culture medium): 95.462
Residual TMPRSS2 activity, Mean (0 nM = 100) (TMPRSS2; inhibitor 1.665 nM, 24 h in cell culture medium): 97.8646
Residual TMPRSS2 activity, Mean (0 nM = 100) (TMPRSS2; inhibitor 1.665 nM, 10 d in cell culture medium): 97.0442
Residual TMPRSS2 activity, Mean (0 nM = 100) (TMPRSS2; inhibitor 1.665 nM, positive ctrl): 88.6541
Residual TMPRSS2 activity, Mean (0 nM = 100) (TMPRSS2; inhibitor 16.65 nM, 0 min in cell culture medium): 83.5545
Residual TMPRSS2 activity, Mean (0 nM = 100) (TMPRSS2; inhibitor 16.65 nM, 30 min in cell culture medium): 80.8705
Residual TMPRSS2 activity, Mean (0 nM = 100) (TMPRSS2; inhibitor 16.65 nM, 60 min in cell culture medium): 72.3193
Residual TMPRSS2 activity, Mean (0 nM = 100) (TMPRSS2; inhibitor 16.65 nM, 120 min in cell culture medium): 83.5842
Residual TMPRSS2 activity, Mean (0 nM = 100) (TMPRSS2; inhibitor 16.65 nM, 24 h in cell culture medium): 87.4426
Residual TMPRSS2 activity, Mean (0 nM = 100) (TMPRSS2; inhibitor 16.65 nM, 10 d in cell culture medium): 88.0057
Residual TMPRSS2 activity, Mean (0 nM = 100) (TMPRSS2; inhibitor 16.65 nM, positive ctrl): 59.7774
Residual TMPRSS2 activity, Mean (0 nM = 100) (TMPRSS2; inhibitor 166.5 nM, 0 min in cell culture medium): 18.9266
Residual TMPRSS2 activity, Mean (0 nM = 100) (TMPRSS2; inhibitor 166.5 nM, 30 min in cell culture medium): 17.6545
Residual TMPRSS2 activity, Mean (0 nM = 100) (TMPRSS2; inhibitor 166.5 nM, 60 min in cell culture medium): 24.0301
Residual TMPRSS2 activity, Mean (0 nM = 100) (TMPRSS2; inhibitor 166.5 nM, 120 min in cell culture medium): 22.2899
Residual TMPRSS2 activity, Mean (0 nM = 100) (TMPRSS2; inhibitor 166.5 nM, 24 h in cell culture medium): 22.0487
Residual TMPRSS2 activity, Mean (0 nM = 100) (TMPRSS2; inhibitor 166.5 nM, 10 d in cell culture medium): 39.6688
Residual TMPRSS2 activity, Mean (0 nM = 100) (TMPRSS2; inhibitor 166.5 nM, positive ctrl): 18.9416
Residual TMPRSS2 activity, Mean (0 nM = 100) (TMPRSS2; inhibitor 1665 nM, 0 min in cell culture medium): -1.499
Residual TMPRSS2 activity, Mean (0 nM = 100) (TMPRSS2; inhibitor 1665 nM, 30 min in cell culture medium): 5.536
Residual TMPRSS2 activity, Mean (0 nM = 100) (TMPRSS2; inhibitor 1665 nM, 60 min in cell culture medium): 0.2889
Residual TMPRSS2 activity, Mean (0 nM = 100) (TMPRSS2; inhibitor 1665 nM, 120 min in cell culture medium): -1.86
Residual TMPRSS2 activity, Mean (0 nM = 100) (TMPRSS2; inhibitor 1665 nM, 24 h in cell culture medium): -0.886
Residual TMPRSS2 activity, Mean (0 nM = 100) (TMPRSS2; inhibitor 1665 nM, 10 d in cell culture medium): 10.1282
Residual TMPRSS2 activity, Mean (0 nM = 100) (TMPRSS2; inhibitor 1665 nM, positive ctrl): 0.02381
SARS-CoV-2 infection, Mean (0 nM = 100) ([1]; compound 32 nM): 97.173
SARS-CoV-2 infection, Mean (0 nM = 100) ([1]; compound 160 nM): 99.3408
SARS-CoV-2 infection, Mean (0 nM = 100) ([1]; compound 800 nM): 95.9056
SARS-CoV-2 infection, Mean (0 nM = 100) ([1]; compound 4000 nM): 58.4381
SARS-CoV-2 infection, Mean (0 nM = 100) ([1]; compound 20000 nM): 1.12
SARS-CoV-2 infection, Mean (0 nM = 100) ([1]; compound 100000 nM): -2.857
IC50 ([1]; read-out: IC50 SARS-CoV-2 Wuhan-Hu-1): 4.57 µM
IC50 ([1]; read-out: IC50 SARS-CoV-2 Wuhan-Hu-1 (text)): 4.6 µM
SARS-CoV-2 spike driven entry, Mean (0 nM = 100) [2]: 80.0549 and 94.4227 and 98.8201
IC50 ([2]; Caco-2 cells, luciferase 2 days post transduction, read-out: IC50 pseudotyped lentivirus Omicron BA.1): 0.431 µM
SARS-CoV-2 spike driven entry, Mean (0 nM = 100) ([2]; Fig. 5e, compound 400 nM, […]): 52.4269
SARS-CoV-2 spike driven entry, Mean (0 nM = 100) ([2]; Fig. 5e, compound 2000 nM, […]): 20.742
SARS-CoV-2 spike driven entry, Mean (0 nM = 100) ([2]; Fig. 5e, compound 10000 nM, […]): 5.628
SARS-CoV-2 spike driven entry, Mean (0 nM = 100) ([2]; Fig. 5e, compound 50000 nM, […]): 3.26
SARS-CoV-2 infection, Mean (0 nM = 100) ([3]; compound 32 nM): 90.9628
SARS-CoV-2 infection, Mean (0 nM = 100) ([3]; compound 160 nM): 88.9778
SARS-CoV-2 infection, Mean (0 nM = 100) ([3]; compound 800 nM): 79.0008
SARS-CoV-2 infection, Mean (0 nM = 100) ([3]; compound 4000 nM): 83.4908
SARS-CoV-2 infection, Mean (0 nM = 100) ([3]; compound 20000 nM): 3.338
SARS-CoV-2 infection, Mean (0 nM = 100) ([3]; compound 100000 nM): -2.162
IC50 ([3]; read-out: IC50 SARS-CoV-2 Beta): 6.88 µM
IC50 [4]: 0.434 µM
